For one test, the target named is T1, RLK (Homo sapiens, UniProt P42681).
T1 construct: purchased Invitrogen PV5860
As to the kind of experiment: Human kinome profiling at 1.0 μM, RLK. Format: biochemical. The conditions noted are these: read-out: percent control, RLK.

The subject of the next test is ERK phosphorylation. Nature of the test: pERK flow cytometry after CD3/28 crosslinking. Format: cell-based. The conditions noted are these: Homo sapiens, mean of three donors. The protocol: PBMCs were pelleted (400×g at 4° C. for 5 minutes) and resuspended in RPMI+10% heat-inactivated fetal bovine serum (FBS) at 14.3×10^6 cells/mL; 70 μL (1×10^6 cells) were plated in a 96 well U bottom plate and incubated at 37° C. for 1 hour. […] CD3-biotin and CD28-biotin were prepared together at 10 μg/mL each, which is 10× the final concentration; 10 μL antibodies were added to the cells and incubated at 37° C. for 15 minutes. Avidin was prepared at 500 μg/mL, which is 10× the final concentration; 10 μL avidin were added to the cells and incubated at 37° C. for 5 minutes to induce TCR crosslinking. A total volume of 100 μL cells were transferred to 200 μL warm 2.4% paraformaldehyde (PFA) in deep well blocks. Pipetting was performed using a liquidator 96 to add reagents to the entire plate with uniform timing. Cells were fixed with PFA at 37° C. for 10 minutes. Cells were pelleted (1000× g for 5 minutes), and the plate was aspirated leaving approximately 100 μL residual volume. The plate was then vigorously vortexed for 10 seconds, and 1 mL −20° C. methanol was added to each well. Cells were stored at […] for approximately 1 month. […] Inhibition was measured by construction of a concentration response curve of the Log base 10 transformed values of the molar concentration of inhibitor. […]
(In general: A flow cytometer gives signals particle by particle.)

A further test has as its system ZAP-70 phosphorylation. As to the kind of experiment: ZAP-70 phosphorylation in Jurkat cells. Type of test: cell-based, human. Particulars: anti-CD3. The protocol: Jurkat human acute T cell leukemia cell line (ATCC, TIB-152) was cultured in RPMI 1640 medium supplemented with Penicillin-Streptomycin (Gibco) and 10% fetal bovine serum (FBS) at 37° C. and 5% CO2. […] The cell pellet was resuspended in NP40 lysis buffer (Invitrogen) containing protease and phosphatase inhibitors cocktail (Cell Signaling Technology), incubated for 30 minutes on ice, and centrifuged at 15, 000×g for 10 minutes. The lysate supernatant from each condition containing 50 μg of total protein was resolved on an 8% Bis-Tris gel (Invitrogen) under reducing condition and transferred onto a nitrocellulose membrane (Invitrogen) using an iBlot2 gel transfer device. Unless specified otherwise, all reagents described above were purchased from Thermo Fisher Scientific. Membranes were blocked for 1 hour at room temperature and incubated overnight at 4° C. with primary antibodies (1:1000 dilution) in Odyssey blocking buffer (LI-COR) with 0.2% Tween 20. Membranes were washed 4 times (5 min each) in Tris-buffered saline, 0.10% Tween 20 and incubated with IRDye 800CW Anti-Rabbit IgG and IRDye 700CW Anti-Mouse IgG (LI-COR) secondary antibodies (1:20,000 dilution) for 1 hour at room temperature. After washes, membranes were imaged in the LI-COR Odyssey® Fc Imaging System. […]

In test [1] the test system is IFNγ production by CD4+ T cells. As to the kind of experiment: T cell activation, IFNγ+CD4+ T cells. Format: cell-based, human. The procedure:
(§1) Fresh PBMCs from healthy human donors were centrifuged and reconstituted at 0.312×10^6 cells/mL in RPMI 1640 medium+10% heat-inactivated FBS+1× penicillin streptomycin and 100,000 cells/well were distributed into 24 well tissue culture plate. Cells were incubated at 37° C. for 1 hour, followed by the addition of CPI 596 or vehicle. The cells were then incubated at 37° C. for 1 hour, followed by the addition of […] anti CD3 and anti CD28 (both eBioscience). Cells were incubated at 37° C. for 6 days, with supplemental media supplied on day 3. On Day 6, the cells were transferred to a 96 deep well plate, washed, and treated with 50 nM phorbol 12-myristate 13-acetate, 1 μg/mL ionomycin, and 1 μg/mL brefeldin A, and then incubated at 37° C. for 4 hours. The cells were then fixed and permeabilized using eBioscience Fox3/transcription factor staining buffer. Cells were treated with Fc block (BioLegend) and then stained with CD3 BV605, CD45RA PerCP-Cy5.5, Tbet PE, IFNγ AF488, IL-4 APC (BioLegend), CD4 PE-Cy7, cPARP AF700 (BD Biosciences), and CD8 Krome Orange (Beckman Coulter). For flow cytometry, 300,000 cells were acquired on Cytoflex (Beckman Coulter). Data were analyzed using Flowjo software. The percentage of CD4^+ T cells that were positive for IFNγ and IL 4 were reported.

Test [2] deals with IL-4 production by CD4+ T cells. Nature of the test: T cell activation, IL-4+CD4+ T cells. Type of test: cell-based, human. The protocol:
as §1

Test [3] concerns imiquimod-induced psoriasis. As to the kind of experiment: Imiquimod-induced model of psoriasis. Particulars: in vivo.
For test [4], the system named is bleomycin-induced pulmonary fibrosis. As to the kind of experiment: Bleomycin-induced mouse pulmonary fibrosis model. Type of test: in vivo. The conditions noted are these: 10 and 30 mg/kg QD, day 7-21.

The values that follow come from patent US20250213587A1, “ITK INHIBITORS FOR INCREASING TH1 CELL ACTIVITY” (Corvus Pharmaceuticals, Inc., priority 2022, published 2025).

T1 sequence (P42681 whole entry): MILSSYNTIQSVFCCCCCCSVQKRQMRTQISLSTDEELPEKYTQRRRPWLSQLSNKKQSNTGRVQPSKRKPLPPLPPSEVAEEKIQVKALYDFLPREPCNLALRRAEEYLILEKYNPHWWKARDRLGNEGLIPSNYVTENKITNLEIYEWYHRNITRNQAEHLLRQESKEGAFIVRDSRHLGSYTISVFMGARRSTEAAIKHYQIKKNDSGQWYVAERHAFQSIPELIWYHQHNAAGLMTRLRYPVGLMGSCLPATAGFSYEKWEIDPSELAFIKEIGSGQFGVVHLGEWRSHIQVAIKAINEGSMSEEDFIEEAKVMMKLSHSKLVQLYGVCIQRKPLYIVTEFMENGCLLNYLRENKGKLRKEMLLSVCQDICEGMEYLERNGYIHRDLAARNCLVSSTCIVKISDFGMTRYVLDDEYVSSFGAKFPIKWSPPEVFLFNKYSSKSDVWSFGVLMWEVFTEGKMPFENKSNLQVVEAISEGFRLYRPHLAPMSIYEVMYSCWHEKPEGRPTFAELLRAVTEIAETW

Usually IC50 stands for the point on the concentration scale where inhibition reaches its midpoint. Lower therefore signals greater potency. Usually inhibition stands for the change of the read-out against control, counted positive when it falls. With `C=CC(=O)N1CCCN(C(=O)c2cc(Sc3cnc(NC(=O)C4CC4)s3)c(C)cc2OC)C[C@H]1C` [CPI-818], the remaining activity at 1 µM at RLK was determined as 70%. This compound also yielded an IC50 with ERK phosphorylation of 39 nM. Besides, the “phosphorylation of ZAP-70” value in the test on ZAP-70 phosphorylation is “but not ZAP-70”. For the same compound, the “effect on IFNγ production” value in test [1] (1 μM, average across samples) was 19%. Moreover, the IFNγ-positivity entry in test [1] (10 μM) is on record as “robustly inhibited”. Also, in test [1] (up to 1 μM, average), the “effect on percentage of IFNγ+CD4+ T cells” value was less than 20%. The IL-4 production entry in test [2] (10 μM) was “complete inhibition”. Moreover, the inhibition at 1 µM in test [2] (Homo sapiens, CD4+ T, 1 μM, average, read-out: inhibition of percentage of CD4+ T cells that produced IL-4) worked out at 64%. In test [3], the dermal inflammation result is “significantly reduced” and the skin thickening entry was “significantly reduced”. In test [4], the BALF leukocytes entry was “reduced” and the lung weight result is “reduced”.
